Results: US12459951B2, “Compounds that interact with RAS superfamily proteins for treatment of cancers, inflammatory diseases, rasopathies, and fibrotic disease” (SHY Therapeutics, LLC, priority 2022, dated 2025)

Columns and labels:
Akt phosphorylation = test: Akt Phosphorylation Assay (western blot), Panc-1; assay type: cell-based, human; conditions: at 10 μM, * = activation
In short: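 Panc-1 (KRas G12D) cells were treated with compound at 10 μM final (0.3% DMSO) for 6 h at 37 °C, or with serial dilutions for IC50. Cells were either serum-starved overnight in 0.5% FBS and then stimulated with 1.5 ng/ml EGF for 15 min, or kept in 10% FBS without stimulation. Akt Ser473 phosphorylation in lysates was read by western blot.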

TNF-alpha = TNF-alpha Quantification Assay (ELISA), LPS-stimulated RAW 264.7; assay type: cell-based; conditions: Mus musculus, RAW264.7; at 10 μM; read-out: TNFα: % inh.
KRas G12D mutant = test: Ras GTP Binding Domain Inhibition Assay (Ras Superfamily Assay); conditions: for KRas G12D mutant + SOS: % inh.: with SOS; for KRas G12D mutant: % inh.: without SOS
In short: (§1)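 Binding of 100 nM fluorescent GTP (Cy3 or Cy5, 45 min, room temperature) was read after washes from plate-captured His-tagged protein. Beforehand, compounds at 20 μM or in dilution series for IC50 sat 3 h on the protein in Tris buffer pH 7.4 or 7.0 with 1% DMSO, Sos GEF optionally added for the last hour.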

KRas wild type = test: as above; conditions: for KRas wild type + SOS: % inh.: with SOS; for KRas wild type: % inh.: without SOS
In short: as §1

Rac-1 = target: T1, Rac-1 (Homo sapiens, UniProt P63000); test: as above; conditions: read-out: Rac-1: % inh.
T1 construct: made in house
In short: as §1

IL6 = test: IL-6 Quantification Assay (ELISA), LPS-stimulated RAW 264.7; assay type: cell-based; parameters: inhibition: dose or concentration left out as unconfirmed; conditions: Mus musculus, RAW264.7; read-out: IL-6: % inh.

| SMILES | % inh of Akt phosphorylation in Panc-1 (Akt phosphorylation) | inhibition at 10 µM (TNF-alpha) [%] | KRas G12D mutant + SOS: % inh. (KRas G12D mutant; 20 μM compound) | KRas G12D mutant: % inh. (KRas G12D mutant; 20 μM compound) | KRas wild type + SOS: % inh. (KRas wild type; 20 μM compound) | KRas wild type: % inh. (KRas wild type; 20 μM compound) | inhibition at 20 µM (Rac-1) [%] | inhibition (IL6) [%] | KRas G12D mutant + SOS: % inh. (KRas G12D mutant; at 20 μM) | KRas G12D mutant: % inh. (KRas G12D mutant; at 20 μM) | KRas wild type + SOS: % inh. (KRas wild type; at 20 μM) | KRas wild type: % inh. (KRas wild type; at 20 μM) |
| --- | --- | --- | --- | --- | --- | --- | --- | --- | --- | --- | --- | --- |
| CCNC(=O)c1c(-c2ccn(C)n2)cn2nc(-c3nccn3C)nc(Nc3cc(OC)ccn3)c12 [Compound 173, N-Ethyl-4-((4-methoxypyridin-2-yl)amino)-2-(1-methyl-1H-imidazol-2-yl)-6-(1-methyl-1H-pyrazol-3-yl)pyrrolo[2,1-f][1,2,4]triazine-5-carboxamide] | C* (46-84% activation) | 0 | C (C = 50-75% inhibition) | B (B = 26-49% inhibition) | D (D = 76-100% inhibition) | C (C = 50-75% inhibition) | 50 to 75 | 75 to 100 |  |  |  |  |
| CCOc1ccc(Nc2nc(-c3nccn3C)nn3cc(-c4ccn(C)n4)c(C)c23)nc1 [Compound 229, N-(5-Ethoxypyridin-2-yl)-5-methyl-2-(1-methyl-1H-imidazol-2-yl)-6-(1-methyl-1H-pyrazol-3-yl)pyrrolo[2,1-f][1,2,4]triazin-4-amine] | D* (85-100% activation) | 0 |  |  |  |  | 76 to 100 | 26 to 49 | D (D = 76-100% inhibition) | D (D = 76-100% inhibition) | D (D = 76-100% inhibition) | C (C = 50-75% inhibition) |
| Cc1c(-c2ccn(C)n2)cn2nc(-c3nccn3C)nc(Nc3ccc(C(C)(C)O)cn3)c12 [Compound 241, 2-(6-((5-Methyl-2-(1-methyl-1H-imidazol-2-yl)-6-(1-methyl-1H-pyrazol-3-yl)pyrrolo[2,1-f][1,2,4]triazin-4-yl)amino)pyridin-3-yl)propan-2-ol] | D* (85-100% activation) | 1 to 24 |  |  |  |  | 76 to 100 | 25 to 49 | D (D = 76-100% inhibition) | D (D = 76-100% inhibition) | D (D = 76-100% inhibition) | D (D = 76-100% inhibition) |
| CO[C@H]1C[C@H](Nc2nc(-c3nccn3C)nn3cc(-c4ccncc4)c(-c4ccccc4)c23)C1 [Compound 199, N-((1r,3r)-3-Methoxycyclobutyl)-2-(1-methyl-1H-imidazol-2-yl)-5-phenyl-6-(pyridin-4-yl)pyrrolo[2,1-f][1,2,4]triazin-4-amine] | A (1-25% inhibition) | 1 to 24 |  |  |  |  | 26 to 49 | 75 to 100 | B (B = 26-49% inhibition) | B (B = 26-49% inhibition) | B (B = 26-49% inhibition) | A (A = 1-25% inhibition) |
| COc1ccnc(Oc2nc(-c3nccn3C)nn3cc(-c4ccn(C)n4)c(C)c23)c1 [Compound 220, 4-((4-Methoxypyridin-2-yl)oxy)-5-methyl-2-(1-methyl-1H-imidazol-2-yl)-6-(1-methyl-1H-pyrazol-3-yl)pyrrolo[2,1-f][1,2,4]triazine] | A (1-25% inhibition) | 1 to 24 |  |  |  |  | 26 to 49 | 25 to 49 | A (A = 1-25% inhibition) | B (B = 26-49% inhibition) | A (A = 1-25% inhibition) | B (B = 26-49% inhibition) |
| Cc1ccc(Nc2nc(-c3nccn3C)nn3cc(-c4ccn(C)n4)c(C)c23)nc1 [Compound 226, 5-Methyl-2-(1-methyl-1H-imidazol-2-yl)-6-(1-methyl-1H-pyrazol-3-yl)-N-(5-methylpyridin-2-yl)pyrrolo[2,1-f][1,2,4]triazin-4-amine] | D* (85-100% activation) | 25 to 49 |  |  |  |  | 76 to 100 | 50 to 74 | D (D = 76-100% inhibition) | D (D = 76-100% inhibition) | D (D = 76-100% inhibition) | D (D = 76-100% inhibition) |
| CO[C@H]1C[C@H](Nc2nc(-c3nccn3C)nn3cc(-c4cccc5c4CCO5)c(-c4ccccc4)c23)C1 [Compound 210, 6-(2,3-Dihydrobenzofuran-4-yl)-N-((1r,3r)-3-methoxycyclobutyl)-2-(1-methyl-1H-imidazol-2-yl)-5-phenylpyrrolo[2,1-f][1,2,4]triazin-4-amine] | D (85-100% inhibition) | 75 to 100 |  |  |  |  | 1 to 25 | 75 to 100 | A (A = 1-25% inhibition) | A (A = 1-25% inhibition) | 0 (0 = 0% inhibition) | A (A = 1-25% inhibition) |
| Cc1c(-c2ccn(C)n2)cn2nc(-c3nccn3C)nc(Nc3ccc(N4CCCC4)cn3)c12 [Compound 228, 5-Methyl-2-(1-methyl-1H-imidazol-2-yl)-6-(1-methyl-1H-pyrazol-3-yl)-N-(5-(pyrrolidin-1-yl)pyridin-2-yl)pyrrolo[2,1-f][1,2,4]triazin-4-amine] | D* (85-100% activation) | 1 to 24 |  |  |  |  | 76 to 100 | 25 to 49 | C (C = 50-75% inhibition) | D (D = 76-100% inhibition) | C (C = 50-75% inhibition) | C (C = 50-75% inhibition) |
| COCCNc1nc(-c2nccn2C)nn2cc(-c3cccc(OC)c3Cl)c(C)c12 [Compound 16, 6-(2-Chloro-3-methoxyphenyl)-N-(2-methoxyethyl)-5-methyl-2-(1-methyl-1H-imidazol-2-yl)pyrrolo[2,1-f][1,2,4]triazin-4-amine] | 0 (0% inhibition) | 0 | 0 (0 = 0% inhibition) | A (A = 1-25% inhibition) | A (A = 1-25% inhibition) | 0 (0 = 0% inhibition) | 0 | 50 to 74 |  |  |  |  |
| Cc1c(-c2ccn(C)n2)cn2nc(-c3nccn3C)nc(Nc3ccc(N(C)C)cn3)c12 [Compound 227, N5,N5-Dimethyl-N2-(5-methyl-2-(1-methyl-1H-imidazol-2-yl)-6-(1-methyl-1H-pyrazol-3-yl)pyrrolo[2,1-f][1,2,4]triazin-4-yl)pyridine-2,5-diamine] | D* (85-100% activation) | 50 to 74 |  |  |  |  | 76 to 100 | 50 to 74 | D (D = 76-100% inhibition) | D (D = 76-100% inhibition) | D (D = 76-100% inhibition) | D (D = 76-100% inhibition) |
| COc1cc(Nc2nc(-c3nccn3C)nn3cc(-c4ccn(C)n4)c(C)c23)ncc1F [Compound 237, N-(5-Fluoro-4-methoxypyridin-2-yl)-5-methyl-2-(1-methyl-1H-imidazol-2-yl)-6-(1-methyl-1H-pyrazol-3-yl)pyrrolo[2,1-f][1,2,4]triazin-4-amine] | D* (85-100% activation) | 0 |  |  |  |  | 76 to 100 | 0 | D (D = 76-100% inhibition) | D (D = 76-100% inhibition) | D (D = 76-100% inhibition) | D (D = 76-100% inhibition) |
